Experimental data reported in the NIST ThermoML archive (doi:10.1016/j.jct.2011.02.006).
Numbers after ± are expanded uncertainties.

Columns and labels:
[1] = Molar enthalpy of transition or fusion; settings: Crystal; DSC
[2] = for viscosity / mass density: 101.33 kPa, Liquid; for viscosity: Falling or rolling sphere viscometry; for mass density: Vibrating tube method

Which results are given for `CCCC[n+]1ccc2ccccc2c1.O=S(=O)([N-]S(=O)(=O)C(F)(F)F)C(F)(F)F` [2-butylisoquinolinium bis[(trifluoromethyl)sulfonyl]amide]?
Molar enthalpy of transition or fusion [1]: 11 ± 0.237 kcal/mol; viscosity ([2]; 323.2 K): 71.07 ± 3.3 mPa·s; mass density ([2]; 323.2 K): 1413.21 ± 6.9 kg/m3; viscosity ([2]; 328.2 K): 56.23 ± 2.5 mPa·s; mass density ([2]; 328.2 K): 1408.78 ± 6.9 kg/m3; viscosity ([2]; 333.2 K): 45.14 ± 2.1 mPa·s; mass density ([2]; 333.2 K): 1404.32 ± 6.8 kg/m3; viscosity ([2]; 338.2 K): 38.46 ± 1.7 mPa·s; mass density ([2]; 338.2 K): 1399.88 ± 6.8 kg/m3; viscosity ([2]; 343.2 K): 32.08 ± 1.5 mPa·s; mass density ([2]; 343.2 K): 1395.47 ± 6.7 kg/m3; viscosity ([2]; 348.2 K): 27.1 ± 1.2 mPa·s; mass density ([2]; 348.2 K): 1391.06 ± 6.7 kg/m3; viscosity ([2]; 353.2 K): 23.02 ± 1 mPa·s; mass density ([2]; 353.2 K): 1386.66 ± 6.7 kg/m3; viscosity ([2]; 358.2 K): 19.87 ± 0.9 mPa·s; mass density ([2]; 358.2 K): 1382.26 ± 6.6 kg/m3; viscosity ([2]; 363.2 K): 16.14 ± 0.73 mPa·s; mass density ([2]; 363.2 K): 1377.88 ± 6.6 kg/m3; Normal melting temperature ([2]; Crystal, DTA): 48 ± 0.39 °C; Glass transition temperature ([2]; Glass, DTA): -55.2 ± 1.1 °C
